# How the values were obtained:
# mouse brain [1] = test: In vivo T7 phage display (biopanning), high throughput sequencing of brain phage; settings: for reads associated with each sequence (Ion torrent sequencing): Round 5 of biopanning
# Description: The in vivo phage screening in male Balb/C mice was performed as described in (Põšnograjeva et al., 2022) with some alterations. To reduce the background of unspecific phages in the brain, 4.5×10^10 pfu of UV-inactivated control insertless T7 phage was injected i.p. 30 min later, CX7C naïve T7 phage library or the phage pool recovered from the brain in the previous round of biopanning was injected i.v. and allowed to circulate for 30 min. The mice were anesthetized and perfused with PBS intracardially. The brain was removed, homogenized in LB-NP40 (1%) and the phages in the lysate were rescued by amplification in semi-solid media in E. coli strain BLT5403. Peptide-encoding portion of the phage genome was sequenced using Ion Torrent high throughput sequencing (HTS). 8 mice were used in the first round of biopanning (R1) to prevent creating a narrow bottleneck of selection in the first round of biopanning. 2 mice were used for all subsequent rounds (R2 . . . . R5). R5 was repeated with the additional step of isolating brain CD31+ cells from CD31− cells by magnetic-activated cell sorting. The mouse brains were dissociated using Dounce tissue grinder and Adult Brain Dissociation Kit (#130-107-677) and CD31+ cells were isolated from all the other brain cells using CD31 MicroBeads (#130-097-418) following the manufacturer's protocol for isolation and cultivation of endothelial cells from adult mouse brain. The cells were lysed in LB-NP40 (1%) and the samples were further processed following the same steps with samples of whole brain.
# To identify peptides that accumulate in mouse brain, cross the blood-brain barrier and reach the brain parenchyma cells, in vivo T7 phage display was used. For round 1 of biopanning, naïve CX7C T7 peptide-phage library was injected into mice i.v. The phages accumulated in brain were rescued to be used as input in a subsequent round of biopanning. A consistent increase in the % of injected phage accumulating in the brain tissue through rounds 1 . . . 5 of biopanning was observed (FIG. 1A; To assess the % of injected phage that accumulated in the brain throughout the five rounds of biopanning (R1-R5), Peptide-phages were injected i.v. and following 30 min circulation mice were perfused with PBS. The phages rescued from the brain were reamplified and injected for a subsequent round of biopanning). The 5th round of bio-panning was then repeated with an additional step of isolating CD31+ brain endothelial cells from CD31− brain cells to detect peptides that not only accumulate in the brain, but also penetrate the endothelial cell layer lining the brain blood vessels (FIG. 1B; The total amount of phage rescued from mouse brain CD31+ and CD31− cell fractions after R5 with the additional step of isolating brain endothelial (CD31+) cells from all the other brain cells (parenchyma cells; CD31−)).
# A complete listing of peptides that were identified from Ion Torrent high throughput sequencing from bio-panning Round 5 is set forth in Table 1B.
# mouse brain [2] = test: In vivo phage display with CX4CYX library; settings: for R1 reads: round 1; for R3 reads: round 3; for R3 > R1 (ratio of sequencing reads between round 3 and round 1): round 3 / round 1
# Description: In vivo phage display with CX4CYX library was performed in three selection rounds. Phage library was injected intravenously to Balb/c mice and allowed to circulate for one hour. After circulation, the animals were anesthetized and perfused intracardially with acid and detergent buffers. Brain and control organs were collected and homogenized in 1% NP40-LB. Bound phages were rescued by amplification in E. coli and their genomic DNA was sequenced by Ion Torrent next generation DNA sequencing system.
# A novel phage library CX4CYX was constructed based on the alanine-leucine screen to find new brain homing peptides). This knowledge directed us to construct a novel phage library CX4CYX (X—any amino acid), where Cys1, Cys6 and Tyr7 remained in their intact positions, and the four amino acid variable-domain laid between the cysteines, and one amino acid variability after Tyr7. Three rounds of phage bio-panning was performed to allow enrichment of peptides in the brain. Again acid and detergent buffers were used for perfusion to remove non-specifically bound phages from the brain after systemic administration of phage library (round 1) and recovered brain phage pools (round 2 and 3). HTS reads from round 1 to round 3 indicated decent enrichment of in-frame peptides in the brain (Table 6).
# [3] = mouse 325, total reads in sample 135061
# [4] = mouse 326, total reads in sample 218048
Substance,reads associated with each sequence (Ion torrent sequencing) (mouse brain [1]; [3]) [reads],reads associated with each sequence (Ion torrent sequencing) (mouse brain [1]; [4]) [reads],R1 reads (mouse brain [2]) [reads],R3 reads (mouse brain [2]) [reads],R3 > R1 (ratio of sequencing reads between round 3 and round 1) (mouse brain [2]),"representation of peptide sequence in brain (mouse brain [1]; whole brain after round 5, CD31+ and CD31- brain cell fractions)"
MLGDPNLARRRVISRAKLAAAL,89,188,,,,
MLGDPILASRAVISRAKLAAALS,54,194,,,,
CVGQLCY,,,12,5355,446,
CQGSNCY,,,4,1202,301,
CACPLCY [CAGPLCY],,,3,1232,411,
MIGDANSSS,2370,2197,,,,
CEGSLCY,,,3,2833,944,
MIGDPILASRRVISRAKLAA,254,286,,,,
MLGDPNSCTEGTRVTC,1533,2339,,,,
MLGDPILASRRVISRAKLAATLE,39,143,,,,
CQGALCY,,,27,8612,319,
MLGDPILASRRVISRAKLEAALE,129,251,,,,
MLGDPILASRRVISRAK,67,100,,,,
MLGDPILASERVISRAKLAAASS,47,169,,,,
MLGDPILASRAVISRAKLAAA,350,399,,,,
MLGDPNS,57,84,,,,
MIGDPNFAIRAVISRAKLAAALE,543,825,,,,
CVCANCY [CVGANCY],,,24,7359,307,
CAGSMCY,,,14,9077,648,
MLGDPILASRRVISRAKLAAALD,34,119,,,,
MLGDPILASRAVISRAKLAAHSS,84,142,,,,

Substance,reads associated with each sequence (Ion torrent sequencing) (mouse brain [1]; [3]) [reads],reads associated with each sequence (Ion torrent sequencing) (mouse brain [1]; [4]) [reads],R1 reads (mouse brain [2]) [reads],R3 reads (mouse brain [2]) [reads],R3 > R1 (ratio of sequencing reads between round 3 and round 1) (mouse brain [2]),"representation of peptide sequence in brain (mouse brain [1]; whole brain after round 5, CD31+ and CD31- brain cell fractions)"
MLGDPILASRRVISRAKLAAALE [Pep1],80229,132268,,,,most represented peptide sequence in the whole brain after round 5 of bio-panning as well as in CD31+ and CD31− brain cell fractions
MLGDPILASRRVISRAKLADALE,142,359,,,,
CTGSLCY,,,64,43464,679,
MLGDPNLARRRVISRAKLAAALE,4716,8755,,,,
MLGDPNIVAKLAAALE,271,368,,,,
CVGTLCY,,,21,11631,554,
IMLGDPILASRRVISRAKL,68,116,,,,
MLGDPILASRRVISRAKLAAALG,33,108,,,,
MLGDPNSC,84,216,,,,
CTGSMCY,,,3,841,280,
CEGALCY,,,17,39863,2345,
MLGDPILASRRVISRAKLA,150,172,,,,
MLGDPILASRRVISRAKLAAAFE,46,269,,,,
MIGDPILAGRRIVSRAKLAAALE,315,480,,,,
CKGSNCY,,,4,2037,509,
MIGDPILASRRVISR,77,76,,,,
MLGDPILASRRVISRAKLAAVLE,51,292,,,,
MLGDPNSSSVDKLAAALE,674,588,,,,
CMGDLCY,,,3,837,279,
MLGDPILASRRVISRAKLAAAL,1495,2334,,,,
